Data published in patent publication US8158621B2, “Methods of treating or preventing autoimmune diseases with 2,4-pyrimidinediamine compounds” (Rigel Pharmaceuticals, Inc., priority 2002, dated 2012).

What follows are compounds tested on Human Jurkat T-cells (clone N) (assay: Jurkat T-cell activation (anti-TCR, CD69 upregulation)). Conditions: not given.
Format: cell-based
Summary of the method: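 Readout is CD69 upregulation by flow cytometry (anti-CD69-APC, 20 min at 4 °C) after 20 h anti-TCR (C305, 500 ng/ml) stimulation at 37 °C.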

SMILES	IC50
CCOC(=O)C(C)(C)Oc1cccc(Nc2ncc(F)c(Nc3cccc(O)c3)n2)c1 [Compound R926906]	> 10 µM
CCOC(=O)C(C)(C)Oc1cccc(Nc2ncc(F)c(Nc3ccc4c(c3)OCCO4)n2)c1 [Compound R926907]	17.1 µM
CCOC(=O)C(C)(C)Oc1cccc(Nc2ncc(F)c(Nc3ccc(C)c(O)c3)n2)c1 [Compound R926908]	30.6 µM
CCOC(=O)C(C)(C)Oc1cccc(Nc2ncc(F)c(Nc3ccc4cc[nH]c4c3)n2)c1 [Compound R926909]	4.65 µM
CNC(=O)C(C)(C)Oc1cccc(Nc2ncc(F)c(Nc3cccc(O)c3)n2)c1 [Compound R926913]	5.65 µM
CNC(=O)COc1cccc(Nc2ncc(F)c(Nc3ccc4c(c3)CNCC4)n2)c1 [Compound R926914]	> 10 µM
CNC(=O)C(C)(C)Oc1cccc(Nc2ncc(F)c(Nc3ccc4c(c3)OCCO4)n2)c1 [Compound R926915]	> 10 µM
C=CCNC(=O)Oc1cccc(Nc2nc(Nc3cccc(OCC(=O)NC)c3)ncc2F)c1 [Compound R926917]	4.74 µM
CCOC(=O)CNC(=O)Oc1cccc(Nc2nc(Nc3cccc(OCC(=O)NC)c3)ncc2F)c1 [Compound R926918]	4.69 µM
CCNC(=O)Oc1cccc(Nc2nc(Nc3cccc(OCC(=O)NC)c3)ncc2F)c1 [Compound R926919]	> 10 µM
CNC(=O)COc1cccc(Nc2ncc(F)c(Nc3ccc(C)c(C(F)(F)F)c3)n2)c1 [Compound R926922]	6.12 µM
CNC(=O)COc1cccc(Nc2ncc(F)c(Nc3ccc(F)c(C)c3)n2)c1 [Compound R926923]	7.2 µM
Cc1ccc(Nc2nc(Cl)ncc2F)cc1CNC(=O)OC(C)(C)C [Compound R926924]	3.23 µM
CNC(=O)COc1cccc(Nc2ncc(F)c(Nc3cccc(SC(F)(F)F)c3)n2)c1 [Compound R926925]	5.87 µM
COC(=O)COc1cc(Nc2ncc(F)c(Nc3cccc(O)c3)n2)cc(OCC(=O)OC)c1 [Compound R926926]	13.1 µM
COC(=O)COc1cc(O)cc(Nc2ncc(F)c(Nc3cccc(O)c3)n2)c1 [Compound R926927]	5.53 µM
CNC(=O)COc1cc(O)cc(Nc2ncc(F)c(Nc3cccc(O)c3)n2)c1 [Compound R926929]	4 µM
CNC(=O)COc1cc(Nc2ncc(F)c(Nc3cccc(O)c3)n2)cc(OCC(=O)NC)c1 [Compound R926930]	10.5 µM
CNC(=O)COc1cccc(Nc2ncc(F)c(Nc3ccc4[nH]ccc4c3)n2)c1 [Compound R926931]	2.93 µM
O=C(c1cccc(Nc2ncc(F)c(Nc3ccc4cc[nH]c4c3)n2)c1)N1CCOCC1 [Compound R926934]	6.01 µM
O=C(c1cccc(Nc2ncc(F)c(Nc3cccc(O)c3)n2)c1)N1CCOCC1 [Compound R926938]	> 10 µM
CCOC(=O)C1CCN(C(=O)c2cccc(Nc3nc(Nc4cccc(OCC(=O)NC)c4)ncc3F)c2)CC1 [Compound R926941]	> 10 µM
CNC(=O)COc1cccc(Nc2ncc(F)c(Nc3ccc4c(c3)C=CCC4)n2)c1 [Compound R926944]	3.43 µM
CNC(=O)COc1cccc(Nc2ncc(F)c(Nc3ccc4c(c3)C(=O)CCC4)n2)c1 [Compound R926947]	13.3 µM
Cc1ccc(-c2ccccc2)cc1Nc1ncc(C)c(Nc2cc(-c3ccccc3)ccc2C)n1 [Compound R935001]	> 10 µM

SMILES	IC50
COc1ccc(Nc2ncc(C)c(Nc3ccc(OC)c(-c4ccccc4)c3)n2)cc1-c1ccccc1 [Compound R935002]	> 10 µM
COc1cc(-c2ccccc2)c(C)cc1Nc1ncc(C)c(Nc2cc(C)c(-c3ccccc3)cc2OC)n1 [Compound R935003]	> 10 µM
COc1ccc([C@@H](C)Nc2ncc(Br)c(N[C@H](C)c3ccc(OC)cc3)n2)cc1 [Compound R935016]	5.36 µM
O=C(O)Cc1cccc(Nc2ncc(F)c(Nc3cccc(CC(=O)O)c3)n2)c1 [Compound R935117]	> 10 µM
CC(C)Oc1ccc(Nc2nc(Nc3ccc(OCc4nc(-c5ccccc5)no4)cc3)ncc2F)cc1 [Compound R935135]	> 10 µM
Fc1cnc(Nc2ccc(OCc3nc(-c4ccccc4)no3)cc2)nc1Nc1ccc2c(c1)OCCO2 [Compound R935136]	> 10 µM
COC(=O)c1cc2cc(Nc3nc(Nc4ccc(OCc5nc(-c6ccccc6)no5)cc4)ncc3F)ccc2o1 [Compound R935137]	24.1 µM
Oc1cccc(Nc2ncc(F)c(Nc3ccc(OCc4nc(-c5ccccc5)no4)cc3)n2)c1 [Compound R935138]	0.46 µM
CC(C)Oc1ccc(Nc2ncc(F)c(Nc3ccc(OCc4nc(-c5ccccc5)no4)cc3)n2)cc1 [Compound R935139]	11 µM
Fc1cnc(Nc2ccc3c(c2)OCCO3)nc1Nc1ccc(OCc2nc(-c3ccccc3)no2)cc1 [Compound R935140]	2.16 µM
Cc1noc(COc2ccc(Nc3ncc(F)c(Nc4cccc(O)c4)n3)cc2)n1 [Compound R935141]	> 10 µM
Cc1noc(COc2ccc(Nc3ncc(F)c(Nc4ccc(OC(C)C)cc4)n3)cc2)n1 [Compound R935142]	9.67 µM
Cc1noc(COc2ccc(Nc3ncc(F)c(Nc4ccc5c(c4)OCCO5)n3)cc2)n1 [Compound R935143]	3.84 µM
Cc1noc(COc2ccc(Nc3nc(Nc4ccc5c(c4)OCCO5)ncc3F)cc2)n1 [Compound R935145]	5.34 µM
COC(=O)c1cc2cc(Nc3ncc(F)c(Nc4ccc(OCc5nc(C)no5)cc4)n3)ccc2o1 [Compound R935146]	> 10 µM
Cc1noc(COc2ccc(Nc3nc(Nc4cccc(O)c4)ncc3F)cc2)n1 [Compound R935147]	1.98 µM
CCOC(=O)C(C)(C)c1ccc(Nc2nc(Nc3ccc4c(c3)OCCO4)ncc2F)cc1 [Compound R935148]	> 10 µM
CC(C)(CO)c1ccc(Nc2nc(Nc3ccc4c(c3)OCCO4)ncc2F)cc1 [Compound R935149]	> 10 µM
CCOC(=O)C(C)(C)c1ccc(Nc2ncc(F)c(Nc3ccc(OC(C)C)cc3)n2)cc1 [Compound R935150]	20.4 µM
CCOC(=O)C(C)(C)c1ccc(Nc2ncc(F)c(Nc3cccc(O)c3)n2)cc1 [Compound R935152]	19.9 µM
CCOC(=O)C(C)(C)c1ccc(Nc2nc(Nc3ccc(OCC(=O)OC)cc3)ncc2F)cc1 [Compound R935157]	> 10 µM
COC(=O)COc1ccc(Nc2ncc(F)c(Nc3ccc(OC(C)C)cc3)n2)cc1 [Compound R935159]	> 10 µM
Fc1cnc(Nc2ccc3c(c2)OCCCO3)nc1Nc1ccc2c(c1)OCCCO2 [Compound R935162]	3.38 µM
COC(=O)c1cc(Nc2ncc(F)c(Nc3ccc(OC(C)C)cc3)n2)cn1C [Compound R935164]	3.32 µM
COC(=O)c1cc(Nc2nc(Nc3ccc4c(c3)OCCO4)ncc2F)cn1C [Compound R935166]	> 10 µM

Same assay, conditions: Homo sapiens

SMILES	IC50
CCNC(=O)Oc1cccc(Nc2ncc(F)c(Nc3cccc(O)c3)n2)c1 [Compound R926928]	> 10 µM

Same assay, conditions: Homo sapiens, Jurkat

SMILES	IC50
Oc1cccc(Nc2ncc(F)c(Nc3ccc4[nH]ccc4c3)n2)c1 [Compound R926932]	2.91 µM
CNC(=O)c1cccc(Nc2ncc(F)c(Nc3ccc4cc[nH]c4c3)n2)c1 [Compound R926933]	2.79 µM
CCOC(=O)C1CCN(C(=O)c2cccc(Nc3ncc(F)c(Nc4ccc5cc[nH]c5c4)n3)c2)CC1 [Compound R926935]	11.8 µM
CNC(=O)c1cccc(Nc2ncc(F)c(Nc3cccc(O)c3)n2)c1 [Compound R926936]	7.88 µM
CCCNC(=O)c1cccc(Nc2ncc(F)c(Nc3cccc(O)c3)n2)c1 [Compound R926937]	> 10 µM
CCOC(=O)C1CCN(C(=O)c2cccc(Nc3ncc(F)c(Nc4cccc(O)c4)n3)c2)CC1 [Compound R926939]	> 10 µM
CCOC(=O)C1CCN(C(=O)c2cccc(Nc3nc(Nc4cccc(O)c4)ncc3F)c2)CC1 [Compound R926940]	> 10 µM
CCOC1CCCc2ccc(Nc3nc(Nc4cccc(O)c4)ncc3F)cc21 (centres unmarked) [Compound R926942]	> 10 µM
Oc1cccc(Nc2ncc(F)c(Nc3ccc4c(c3)C=CCC4)n2)c1 [Compound R926943]	18.5 µM
COc1ccc(Nc2nc(Nc3cccc(O)c3)ncc2F)cc1Cl [Compound R926945]	4.24 µM
Oc1cccc(Nc2ncc(F)c(Nc3ccc(Cl)nc3)n2)c1 [Compound R927018]	17.7 µM
Oc1cccc(Nc2ncc(F)c(Nc3ccc4ncccc4c3)n2)c1 [Compound R927019]	> 10 µM
COc1ccc(-c2ccccc2)cc1Nc1ncc(C)c(Nc2cc(-c3ccccc3)ccc2OC)n1 [Compound R935000]	> 10 µM
COc1ccc(C(Nc2ncc(F)c(NC(c3ccc(OC)cc3)c3ccc(OC)cc3)n2)c2ccc(OC)cc2)cc1 [Compound R935004]	> 10 µM
Fc1cnc(NC(c2ccccc2)c2ccccc2)nc1NC(c1ccccc1)c1ccccc1 [Compound R935005]	> 10 µM
Fc1cnc(NC(c2ccc(Cl)cc2)c2ccc(Cl)cc2)nc1NC(c1ccc(Cl)cc1)c1ccc(Cl)cc1 [Compound R935006]	> 10 µM
Oc1cccc(Nc2ncc(F)c(NC3c4ccccc4-c4ccccc43)n2)c1 [Compound R935020]	> 10 µM
COC(=O)c1cc(Nc2nc(Nc3cccc(O)c3)ncc2Br)cn1C [Compound R935025]	7.95 µM
COCCOc1cccc(Nc2ncc(F)c(Nc3cccc(OCCOC)c3)n2)c1 [Compound R935076]	> 10 µM
CC(C)c1ccc(O)cc1Nc1ncc(F)c(Nc2cc(O)ccc2C(C)C)n1 [Compound R935077]	> 10 µM
COC(=O)C=C1C=CC=C(Nc2ncc(F)c(NC3=CC=CC(=CC(=O)OC)C3)n2)C1 [Compound R935114]	> 10 µM
CC(C)Oc1ccc(Nc2nc(Nc3ccc(C(C)(C)CO)cc3)ncc2F)cc1 [Compound R935151]	1.96 µM
CC(C)(CO)c1ccc(Nc2ncc(F)c(Nc3cccc(O)c3)n2)cc1 [Compound R935153]	7.07 µM
CC(C)(CO)c1ccc(Nc2nc(Nc3ccc(OCCO)cc3)ncc2F)cc1 [Compound R935158]	2.47 µM
CC(C)Oc1ccc(Nc2nc(Nc3ccc(OCCO)cc3)ncc2F)cc1 [Compound R935160]	2.37 µM
CC(C)(CO)c1ccc(Nc2nc(Nc3cccc(OCCO)c3)ncc2F)cc1 [Compound R935161]	3.13 µM
